Data taken from patent US20250221966A1, “RXFP1 AGONISTS” (BRISTOL-MYERS SQUIBB COMPANY, priority 2021, published 2025).

target: T1, human RXFP1 (Homo sapiens, UniProt Q9HBX9); test: RXFP1 cAMP assay (hRXFP1 HEK293 cAMP assay, HTRF); type: cell-based; conditions: HEK293 cells stably expressing human RXFP1, 30 min at room temperature, read-out: cAMP hRXFP1 HEK293 Assay EC50
T1 construct: expressed in transfected cells
T1 sequence (Q9HBX9 1-757): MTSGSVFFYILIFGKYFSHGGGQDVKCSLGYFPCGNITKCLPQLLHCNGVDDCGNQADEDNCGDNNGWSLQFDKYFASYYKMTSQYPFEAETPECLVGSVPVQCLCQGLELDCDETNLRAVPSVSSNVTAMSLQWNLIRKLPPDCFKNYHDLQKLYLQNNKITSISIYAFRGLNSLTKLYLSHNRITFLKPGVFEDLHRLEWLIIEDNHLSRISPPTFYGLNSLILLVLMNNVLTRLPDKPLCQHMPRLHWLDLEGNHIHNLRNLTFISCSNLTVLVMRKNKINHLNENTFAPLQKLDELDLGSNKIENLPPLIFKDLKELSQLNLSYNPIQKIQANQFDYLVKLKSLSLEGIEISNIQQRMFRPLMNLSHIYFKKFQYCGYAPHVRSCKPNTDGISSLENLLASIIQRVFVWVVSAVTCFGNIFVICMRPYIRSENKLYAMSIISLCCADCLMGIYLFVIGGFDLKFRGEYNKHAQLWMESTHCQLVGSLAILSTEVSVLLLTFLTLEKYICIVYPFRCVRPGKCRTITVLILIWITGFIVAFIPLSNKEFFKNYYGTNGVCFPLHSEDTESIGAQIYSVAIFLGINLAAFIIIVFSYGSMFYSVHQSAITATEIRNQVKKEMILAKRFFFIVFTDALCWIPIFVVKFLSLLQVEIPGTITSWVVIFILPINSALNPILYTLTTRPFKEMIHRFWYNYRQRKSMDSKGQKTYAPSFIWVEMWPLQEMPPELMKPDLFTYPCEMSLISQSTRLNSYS
Method in brief: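 hRXFP1-HEK293 stable line; HBSS + Ca/Mg, 20 mM HEPES, 0.05% BSA, 0.5 mM IBMX; cpd 0.010 nM–50 μM, 2% DMSO; 30 min RT; lysis, HTRF cAMP detection; 4-PL fit.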

Row | Structure (SMILES) | EC50
1 | COc1ccc(C2CC3CN(CCCO)C(=O)C32)cc1C(=O)N[C@H]1[C@@H](C(=O)Nc2ccc(F)c(C(F)(F)F)c2)[C@H]2CC[C@@H]1/C2=C\C1CC1 (single isomer, unassigned) [compound 734] | 23 nM
2 | COc1ccc(C2CCCN2C(=O)C(C)(C)O)cc1C(=O)N[C@@H]1C2CCC(C2=CC2CC2)[C@@H]1C(=O)Nc1ccc(F)c(C(F)(F)F)c1 (some centres unmarked) [compound 671] | 451 nM
3 | COc1ccc(C2=NOC3CC(CO)CC23)cc1C(=O)N[C@H]1[C@@H](C(=O)N[C@H](C)C2(C)CC2)[C@H]2CC[C@@H]1/C2=C\c1csc(C(F)F)n1 (some centres unmarked) [compound 741] | 1.7 nM
4 | COc1ccc(-c2cc(C(=O)O)ccc2F)cc1C(=O)NC1C2CCC(/C2=C/c2cn(C[Si](C)(C)C)nn2)[C@@H]1C(=O)Nc1ccc(F)c(C(F)(F)F)c1 (some centres unmarked) [Example 325] | 4830 nM
5 | COc1ccc(-c2cc(C(=O)O)ccc2F)cc1C(=O)N[C@@H]1C2CCC(/C2=C/c2cn(C)nn2)[C@@H]1C(=O)Nc1ccc(F)c(C(F)(F)F)c1 (some centres unmarked) [compound 327] | 2040 nM
6 | COc1cc(F)c(F)cc1C(=O)N[C@@H]1C2CCC(/C2=C\Br)[C@@H]1C(=O)Nc1ccc(F)c(C(F)(F)F)c1 (some centres unmarked) [compound 10] | 1100 nM
7 | O=C(N[C@H]1[C@@H](C(=O)Nc2ccc(F)c(C(F)(F)F)c2)[C@H]2CC[C@@H]1/C2=C\C1CC1)c1cc(C2=NOC3CC(CO)CC23)cc(F)c1OCC(F)F (some centres unmarked) [compound 789] | 4.4 nM
8 | COc1ccc(C2=NO[C@H]3CC(CO)C[C@@H]23)cc1C(=O)N[C@H]1[C@@H](C(=O)Nc2ccc(F)c(C(F)(F)F)c2)[C@H]2CC[C@@H]1/C2=C\C1CC(F)(F)C1 (some centres unmarked) [compound 840] | 4.5 nM
9 | COc1ccc(-c2cc(C(NC(=O)C3CCOCC3)C(=O)O)ccc2F)cc1C(=O)N[C@H]1[C@@H](C(=O)N[C@H](C)C2(C)CC2(F)F)[C@H]2CC[C@@H]1/C2=C\C1CC(F)(F)C1 (some centres unmarked) [compound 971] | 2.8 nM
10 | COc1ccc(C2=NOC3COCC23)cc1C(=O)N[C@H]1[C@@H](C(=O)NCC2(C)COC2)[C@H]2CC[C@@H]1/C2=C\C1CC1 (some centres unmarked) [compound 675] | 485 nM
11 | COCCN1CCCC1c1ccc(OC)c(C(=O)N[C@@H]2C3CCC(C3=CC3CC3)[C@@H]2C(=O)Nc2ccc(F)c(C(F)(F)F)c2)c1 (some centres unmarked) [compound 689] | 684 nM
12 | CC[C@@H](NC(=O)[C@@H]1[C@H](NC(=O)c2cc(C3=NOC4COCC34)ccc2OC)[C@@H]2CC[C@H]1/C2=C/C1CC1)C1CCC1 (some centres unmarked) [Example 578] | 70.8 nM
13 | O=C(N[C@H]1[C@@H](C(=O)Nc2ccc(F)c(C(F)(F)F)c2)[C@H]2CC[C@@H]1/C2=C\C1CC1)c1cc(C2=NOC3COCC23)ccc1OCCC(F)(F)F (some centres unmarked) [compound 780] | 1.8 nM
14 | COc1ccc(C2=NOC(C(=O)O)C2)cc1C(=O)N[C@@H]1C2CCC(/C2=C/C2CCC2)[C@@H]1C(=O)Nc1ccc(F)c(C(F)(F)F)c1 (some centres unmarked) [compound 388] | 152 nM
15 | COc1ccc(-c2cc(C3=NOC4COCC34)ccc2F)cc1C(=O)N[C@H]1[C@@H](C(=O)Nc2ccc(F)c(C(F)(F)F)c2)[C@H]2CC[C@@H]1/C2=C\C1CC1 (some centres unmarked) [compound 910] | 3.4 nM
16 | COc1c(F)cc(C2=NOC3CC(CO)CC23)cc1C(=O)N[C@H]1[C@@H](C(=O)N[C@H](C)C2(C)CC2)[C@H]2CC[C@@H]1/C2=C\CC(O)C(F)(F)F (some centres unmarked) [compound 821] | 2.5 nM
17 | CNC(=O)c1ccc(F)c(-c2ccc(OC)c(C(=O)N[C@@H]3C4CCC(/C4=C/C4CC4)[C@@H]3C(=O)Nc3ccc(F)c(C(F)(F)F)c3)c2)c1 (some centres unmarked) [Example 166] | 11 nM
18 | COc1ccc(-c2cc(C(=O)Nc3nnn[nH]3)ccc2F)cc1C(=O)N[C@@H]1C2CCC(/C2=C/c2cnoc2)[C@@H]1C(=O)Nc1ccc(F)c(C(F)(F)F)c1 (some centres unmarked) [Example 192] | 135 nM
19 | COc1cc(C2CC2)c(C2=NOC3COCC23)cc1C(=O)N[C@H]1[C@@H](C(=O)Nc2ccc(F)c(C(F)(F)F)c2)[C@H]2CC[C@@H]1/C2=C\C1CC1 (single isomer, unassigned) [compound 695] | 836 nM

More lines, now with the values ahead:

Row | EC50 | Structure (SMILES)
20 | 1330 nM | COc1ccc(C2=NOC3COCC23)cc1C(=O)N[C@H]1[C@@H](C(=O)NCc2ccnn2C)[C@H]2CC[C@@H]1/C2=C\C1CC1 (some centres unmarked) [compound 707]
21 | 300 nM | Cc1ccc(C2=NOC3COCC23)cc1C(=O)N[C@H]1[C@@H](C(=O)Nc2ccc(F)c(C(F)(F)F)c2)[C@H]2CC[C@@H]1/C2=C\C1CC1 (single isomer, unassigned) [compound 654]
22 | 194 nM | COc1ccc(C2=NOC3CC(CO)CC23)cc1C(=O)N[C@@H]1C2CCC(/C2=C/C2CC2)[C@@H]1C(=O)Nc1ccc(F)c(C(F)(F)F)c1 (single isomer, unassigned) [Example 430]
23 | 74.9 nM | COc1ccc(C2=NOC3COCC23)cc1C(=O)N[C@H]1[C@@H](C(=O)NCc2cccc(Cl)c2Cl)[C@H]2CC[C@@H]1/C2=C\C1CC1 (some centres unmarked) [compound 582]
24 | 69 nM | COc1ccc(-c2cccc(C(F)(F)F)n2)cc1C(=O)N[C@@H]1C2CCC(/C2=C/C2CC2)[C@@H]1C(=O)Nc1ccc(F)c(C(F)(F)F)c1 (some centres unmarked) [compound 283]
25 | 49 nM | COc1ccc(C2=NOC(CC(=O)O)C2)cc1C(=O)N[C@@H]1C2CCC(/C2=C/C2CC2)[C@@H]1C(=O)Nc1ccc(F)c(C(F)(F)F)c1 (some centres unmarked) [compound 391]
26 | 7 nM | COc1ccc(-c2cc(C(OC(=O)Nc3ccccc3)C(F)(F)F)ccc2F)cc1C(=O)N[C@@H]1C2CCC(/C2=C/C2CC2)[C@@H]1C(=O)Nc1ccc(F)c(C(F)(F)F)c1 (single isomer, unassigned) [compound 229]
27 | 5 nM | COc1ccc(-c2cc(C(NC(C)=O)C(=O)O)ccc2F)cc1C(=O)N[C@@H]1C2CCC(/C2=C/C2CC2)[C@@H]1C(=O)Nc1ccc(F)c(C(F)(F)F)c1 (some centres unmarked) [Example 182]
28 | 4 nM | COc1ccc(-c2cc(C3=NOC4CC(O)CC34)ccc2F)cc1C(=O)N[C@H]1[C@@H](C(=O)Nc2ccc(F)c(C(F)(F)F)c2)[C@H]2CC[C@@H]1/C2=C\C1CC1 (some centres unmarked) [compound 909]
29 | 3.8 nM | COc1ccc(C2=NOC3COCC23)cc1C(=O)N[C@H]1[C@@H](C(=O)N[C@H](CF)C2(C)CC2)[C@H]2CC[C@@H]1/C2=C\C1CC1 (some centres unmarked) [compound 771]
30 | 3.8 nM | COc1c(F)cc(C2=NOC3CC(CO)CC23)cc1C(=O)N[C@H]1[C@@H](C(=O)N[C@H](C)C2(C)CC2)[C@H]2CC[C@@H]1/C2=C\CCC(F)(F)F (some centres unmarked) [compound 834]
31 | 3.6 nM | COc1c(F)cc(-c2ccc3c(c2)S(=O)(=O)N(C(C)(C)C)C3)cc1C(=O)N[C@H]1[C@@H](C(=O)N[C@H](C)C2(C)CC2)[C@H]2CC[C@@H]1/C2=C\C1CC1 [compound 916]
32 | 3.5 nM | COc1ccc(C2=NO[C@H]3C[C@H](CO)C[C@@H]23)cc1C(=O)N[C@H]1[C@@H](C(=O)NC23CC(C)(C2)C3)[C@H]2CC[C@@H]1/C2=C\C[C@@H](O)C(F)(F)F [compound 831]
33 | 2 nM | COc1ccc(-c2cc(C(OC(=O)Nc3ccccc3)C(F)F)ccc2F)cc1C(=O)N[C@H]1[C@@H](C(=O)Nc2ccc(F)c(C(F)(F)F)c2)[C@H]2CC[C@@H]1/C2=C\C1CC1 (stereo partly drawn) [Example 233, 1-(3′-(((1R,2R,3S,4R,Z)-7-(cyclopropylmethylene)-3-((4-fluoro-3-(trifluoromethyl)phenyl)carbamoyl)bicyclo[2.2.1]heptan-2-yl)carbamoyl)-6-fluoro-4′-methoxy-[1,1′-biphenyl]-3-yl)-2,2-difluoroethyl phenylcarbamate]
34 | 2 nM | COc1ccc(-c2cc(C(OC(=O)NC3COC3)C(F)(F)F)ccc2F)cc1C(=O)N[C@@H]1C2CCC(/C2=C/C2CC2)[C@@H]1C(=O)Nc1ccc(F)c(C(F)(F)F)c1 (some centres unmarked) [compound 218]
35 | 2 nM | COc1ccc(C2=NOC3CC(CO)CC23)cc1C(=O)N[C@H]1[C@@H](C(=O)Nc2ccc(F)c(C(F)(F)F)c2)[C@H]2CC[C@@H]1/C2=C\C1CC1 (stereo partly drawn) [Example 429, (1R,2S,3R,4R,Z)-7-(cyclopropylmethylene)-N-(4-fluoro-3-(trifluoromethyl)phenyl)-3-(5-(5-(hydroxymethyl)-3a,5,6,6a-tetrahydro-4H-cyclopenta[d]isoxazol-3-yl)-2-methoxybenzamido)bicyclo[2.2.1]heptane-2-carboxamide]
36 | 1.2 nM | COc1ccc(-c2cnn3c2COCC3)cc1C(=O)N[C@H]1[C@@H](C(=O)N[C@H](C)C2(C)CC2)[C@H]2CC[C@@H]1/C2=C\C1CC1 [compound 745]
37 | 1 nM | COc1ccc(-c2cc(C(NC(=O)C3CCOCC3)C(=O)O)ccc2F)cc1C(=O)N[C@@H]1C2CCC(/C2=C/C(F)(F)F)[C@@H]1C(=O)Nc1ccc(F)c(C(F)(F)F)c1 (some centres unmarked) [compound 239]

same assay, conditions: cAMP hRXFP1 HEK293 Assay EC50, HEK293 cells stably expressing human RXFP1, 30 min at room temperature

Row | EC50 | Structure (SMILES)
38 | 5 nM | CNC(=O)OC(C(=O)O)c1ccc(F)c(-c2ccc(OC)c(C(=O)N[C@@H]3C4CCC(/C4=C/C4CC4)[C@@H]3C(=O)Nc3ccc(F)c(C(F)(F)F)c3)c2)c1 (some centres unmarked) [Example 179]
